pIC50: −log10 of the molar value. The source made the active and inactive calls. No cut-off for these calls is given here.
Legend:
[1] = tested on: Mycolicibacterium smegmatis; assay: Inhibition of Mycobacterium smegmatis NDH2 in inverted membrane vesicle assessed as inhibition of succinate-driven vesicle acidification by fluorescence based analysis; assay type: cell membranes
[2] = tested on: Mycolicibacterium smegmatis; assay: Inhibition of Mycobacterium smegmatis NDH2 in inverted membrane vesicle assessed as inhibition of […] vesicle acidification by fluorescence based analysis; assay type: cell membranes
[3] = tested on: Mycolicibacterium smegmatis; assay: Inhibition of Mycobacterium smegmatis GMC_MDM2 NDH2 in inverted membrane vesicle assessed as inhibition of ATP-driven vesicle acidification by fluorescence based analysis; assay type: cell membranes
[4] = tested on: Mycolicibacterium smegmatis; assay: Inhibition of Mycobacterium smegmatis NDH2 in inverted membrane vesicle assessed as inhibition of succinate-driven vesicle acidification at >10 uM by fluorescence based analysis; assay type: cell membranes
[5] = Inhibition of recombinant Mycobacterium smegmatis NDH2 catalytic activity in presence of NADH incubated for 1 min by UV-spectrometric analysis; parameters: species or system Mycolicibacterium smegmatis
[6] = tested on: Mycolicibacterium smegmatis; assay: Inhibition of Mycobacterium smegmatis GMC_MDM2 NDH2 in inverted membrane vesicle assessed as inhibition of ATP-driven vesicle acidification at >10 uM by fluorescence based analysis; assay type: cell membranes
[7] = tested on: Mycolicibacterium smegmatis; assay: Inhibition of Mycobacterium smegmatis NDH2 in inverted membrane vesicle assessed as inhibition of […] vesicle acidification at up to 120 uM by fluorescence based analysis; assay type: cell membranes

SMILES	inhibition [1]	inhibition [2]	inhibition [3]	inhibition [4]	pIC50 [5]	inhibition [6]	inhibition [7]
Nc1nc(Nc2ccc3nc(-c4ccc(F)cc4)cc(N)c3c2)cc(-c2ccc(C(F)(F)F)cc2)n1	Active	Active	Active				
Nc1nc(Nc2ccc3nc(-c4ccc(F)cc4)cc(N)c3c2)cc(-c2ccc(Cl)cc2)n1	Active	Active	Active				
O=C(CSc1nc2ccccc2c(=O)[nH]1)NC1CCCCC1			Active	Active; Compound Showed Partial Inhibition Of Succinate Driven Acidification	7.64	Active; Compound Showed Partial Inhibition Of Atp Driven Acidification	
C=C(C)[C@H]1Cc2c(ccc3c2O[C@@H]2COc4cc(OC)c(OC)cc4[C@@H]2C3=O)O1							inactive

Reference: ChEMBL document CHEMBL6109123, “Structure of Mycobacterial NDH-2 Bound to a 2-Mercapto-Quinazolinone Inhibitor” (J Med Chem, 2025)
